Values joined by “and” are separate entries in the source; they are usually repeats but may differ in a detail not shown here. Equal entries are not always repeated. “Also recorded” adds a separate entry of the source.
Tests used:
[1] = behavioral changes and side effects in cebus monkeys; type: in vivo; settings: for Behavioral Changes / Side Effects / Duration / Onset / time of onset of side effect (Extrapyramidal): individual monkey
[2] = tail-flick test, analgesic activity of the agent alone; type: in vivo, albino mice
Description: (§1) In the following experiments, phenoperidine and Compound I are used in the form of their hydrochloride salt and droperidol in the form of its free base in the presence of lactic acid for adjustment to pH to 3.4. Results are expressed on the basis of the form of the drug employed (i.e., free base or hydrochloride salt).
(§2) Results of such tests using albino mice are illustrated by tables 1,2 and 3 in which the neuroleptic agent, droperidol, is included for comparative purposes.
*The dose which increased analgesia by 50% when tested 15 minutes after […]

[3] = onset, duration of activity and cardiovascular effect (general statement); type: in vivo
[4] = in words; cited from earlier work
[5] = tail-flick test, potentiation of the analgesic activity of phenoperidine; type: in vivo, albino mice
Description: as §1, §2
Potentiation of the Analgesic Activity (ED50) of Phenoperidine,
i.e. 0.5 mg/kg, by varying Doses of Neuroleptic Agents.
*PD50 refers to the dose of the neuroleptic which increased the
analgesic activity (ED50) of phenoperidine by 50%.
Modified Analgesic Activity of Phenoperidine in
the Presence of the Neuroleptic PD50. -
*ED50 refers to the analgesic activity of phenoperidine after
pretreatment with a fixed dose (PD50) of the neuroleptic agents.

Compound: CC(C)[C@@]1(O)CCN2C[C@@H]3c4ccccc4CCc4cccc(c43)[C@H]2C1 [Compound 1, (+)(4a,13b-trans)-(3-hydroxy,13b-trans)-3-isopropyl-2,- 3,4,4a,8,9,13b,14-octahydro-lH-benzo[6,7]cyclohepta[1,2,3-de]pyrido[2,1-a]isoquinolin-3-ol]
- Behavioral Changes ([1]; Compound 1, 5 μg/kg i.v.): None
- Side Effects ([1]; Compound 1, 5 μg/kg i.v.): None
- Behavioral Changes ([1]; Compound 1, 10 μg/kg i.v.): Passive; also recorded: Huddle
- Duration ([1]; Compound 1, 10 μg/kg i.v.): 3 h and > 4 h and 2 h
- Onset ([1]; Compound 1, 10 μg/kg i.v.): 30 min and 20 min and 15 min and 60 min
- Side Effects ([1]; Compound 1, 10 μg/kg i.v.): None
- Behavioral Changes ([1]; Compound 1, 20 μg/kg i.v.): Passive-Huddle
- Duration ([1]; Compound 1, 20 μg/kg i.v.): 4 h and > 5 h and 3 h
- Onset ([1]; Compound 1, 20 μg/kg i.v.): 20 min and 15 min
- Side Effects ([1]; Compound 1, 20 μg/kg i.v.): None
- Behavioral Changes ([1]; Compound 1, 50 μg/kg i.v.): Huddle
- Duration ([1]; Compound 1, 50 μg/kg i.v.): > 4 h
- Onset ([1]; Compound 1, 50 μg/kg i.v.): 20 min and 10 min
- Side Effects ([1]; Compound 1, 50 μg/kg i.v.): Extrapyramidal and None
- time of onset of side effect (Extrapyramidal) ([1]; Compound 1, 50 μg/kg i.v.): 30 min and 40 min
- Behavioral Changes ([1]; Compound 1, 100 μg/kg i.v.): Huddle
- Duration ([1]; Compound 1, 100 μg/kg i.v.): > 24 h
- Onset ([1]; Compound 1, 100 μg/kg i.v.): 10 min and 5 min
- Side Effects ([1]; Compound 1, 100 μg/kg i.v.): Extrapyramidal
- time of onset of side effect (Extrapyramidal) ([1]; Compound 1, 100 μg/kg i.v.): 15 min and 10 min
- doses at which signs of excitomotor agitation (extrapyramidal excitation) were observed ([1]; i.v.): 0.05 to 0.1 mg/kg
- eliciting behavioral changes ([1]; in words): effective in eliciting behavioral changes at very small doses
- ED50 ([2]; Mus musculus, ip, 0.25 h, i.p., dose which increased analgesia by 50% when tested 15 minutes after drug administration): > 35 mg/kg
- analgesic activity when given alone ([2]; in words, listed as Compound I): only a negligible amount of analgesic activity; also recorded: no analgesic activity could be demonstrated
- effect on the cardiovascular system ([3]; alone or in combination with a suitable analgesic agent, in words): little or no effect on the cardiovascular system
- onset of action ([3]; in words): quick onset of action
- duration of activity ([3]; relatively short duration): up to four
- neuroleptic potency [4]: potent neuroleptic agent
- relative potentiating activity, Compound I versus droperidol ([5]; in words): equiactive
- enhancement of analgesic activity of phenoperidine by concomitant administration ([5]; in words, listed as Compound I): well defined potentiating effect on analgesic agents; also recorded: significantly enhanced
- PD50 of Neuroleptic Agent (dose which increased the analgesic activity (ED50) of phenoperidine by 50%) ([5]; mouse, in vivo, ip): 0.56 ± 0.06 mg/kg
